Test results from paper PMC11990452, “Discovery of MAGL Inhibition by Lophine Derivatives: An Unexpected Finding from Chemiluminescent Assay Development” (Molecules, 2025).

How the values were obtained:
[1] = target: T1, human recombinant monoacylglycerol lipase (hMAGL) (Homo sapiens, UniProt Q99685); assay: fluorometric 7-HRO hydrolysis assay, residual activity at […]; type: biochemical
T1 construct: gene MGLL
T1 sequence (Q99685 1-303): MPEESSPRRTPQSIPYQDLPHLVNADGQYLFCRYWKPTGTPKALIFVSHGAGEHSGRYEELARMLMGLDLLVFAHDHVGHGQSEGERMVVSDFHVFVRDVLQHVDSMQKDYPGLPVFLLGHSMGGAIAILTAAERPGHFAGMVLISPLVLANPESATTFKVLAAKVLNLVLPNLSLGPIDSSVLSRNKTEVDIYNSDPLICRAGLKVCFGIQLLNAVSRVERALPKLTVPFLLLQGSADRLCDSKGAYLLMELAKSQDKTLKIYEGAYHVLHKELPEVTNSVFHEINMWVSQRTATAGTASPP

[2] = target: T1, human recombinant monoacylglycerol lipase (hMAGL); assay: fluorometric 7-HRO hydrolysis assay with recombinant hMAGL; dilution reversibility and Lineweaver-Burk kinetics; type: biochemical

IC50 [2] | Structure (SMILES) | fluorometric 7-HRO hydrolysis assay, residual activity at 50 nM-100 μM [1]
– | Oc1ccc(-c2nc(-c3ccccc3)c(-c3ccccc3)[nH]2)cc1 [compound 1, 2-(4-Hydroxyphenyl)-4,5-Diphenylimidazole] | all tested compounds interact with MAGL, leading to a concentration-dependent reduction in enzyme activity
– | CCCC(=O)Oc1ccc(-c2nc(-c3ccccc3)c(-c3ccccc3)[nH]2)cc1 [compound 2, Butyric Acid Ester of 2-(4-Hydroxyphenyl)-4,5-Diphenylimidazole] | all tested compounds interact with MAGL, leading to a concentration-dependent reduction in enzyme activity
21 µM | CCCCCCCC(=O)Oc1ccc(-c2nc(-c3ccccc3)c(-c3ccccc3)[nH]2)cc1 [compound 3, Octanoic Acid Ester of 2-(4-Hydroxyphenyl)-4,5-Diphenylimidazole] | –
6.5 µM | CCCCCCCCCCCCCCCC(=O)Oc1ccc(-c2nc(-c3ccccc3)c(-c3ccccc3)[nH]2)cc1 [compound 4, Palmitic Acid Ester of 2-(4-Hydroxyphenyl)-4,5-Diphenylimidazole] | –
